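Interpolation was linear, between the two tested concentrations surrounding the appropriate level; five concentrations were tested over 48 hours in 96-well plates. GI50 marks 50% less growth. TGI marks complete inhibition of growth.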
Key:
Experiment in all cases: growth of human tumour cells (NCI), 48 h
[1] = test system: CAKI-1 renal
[2] = test system: OVCAR-4 ovarian
[3] = test system: HCT-116 colon
[4] = test system: MALME-3M melanoma
[5] = test system: SNB-19 CNS
[6] = test system: ACHN renal
[7] = test system: NCI-H460 lung
[8] = test system: HOP-92 NSCLC
[9] = test system: SW-620 colon
[10] = test system: BT-549 breast

## CCOc1ccc(O)cc1[P+](c1ccccc1)(c1ccccc1)c1ccccc1
[1]
  TGI: 23.4 µM
[2]
  TGI: 19.4 µM
[3]
  TGI: 13.7 µM
[4]
  TGI: 20.1 µM
[5]
  TGI: 24.5 µM
[6]
  TGI: 81.7 µM
[7]
  TGI: 14.5 µM

## COc1ccccc1NS(=O)(=O)c1ccc2oc(SC(C)C)nc2c1
[8]
  TGI: 13 µM
[1]
  GI50: 17 µM
  TGI: 68.9 µM
[2]
  GI50: 8.67 µM
  TGI: 77.6 µM
[3]
  GI50: 8.35 µM
  TGI: > 100 µM
[4]
  GI50: 12.9 µM
  TGI: 37.5 µM
[5]
  GI50: 37.7 µM
  TGI: > 100 µM
[6]
  GI50: 21 µM
  TGI: > 100 µM
[9]
  GI50: 31.6 µM
  TGI: > 100 µM
[7]
  GI50: 15.7 µM
  TGI: > 100 µM

## Cc1cc(=O)[nH]c(CNC(=O)c2cccc(C(=O)NCc3cc(=O)[nH]c(C)n3)c2)n1
[8]
  TGI: > 100 µM
[2]
  TGI: > 100 µM
[3]
  TGI: > 100 µM
[4]
  TGI: > 100 µM
[5]
  TGI: > 100 µM
[6]
  TGI: > 100 µM
[9]
  TGI: > 100 µM
[7]
  TGI: > 100 µM

## O=C(CC(=O)c1cccc(Cl)c1)c1cccc(Cl)c1
[8]
  GI50: 1.95 µM
  TGI: > 100 µM
[1]
  GI50: 1.61 µM
  TGI: 6.65 µM
[2]
  GI50: 1.9 µM
  TGI: > 100 µM
[3]
  GI50: 1.15 µM
  TGI: > 100 µM
[4]
  GI50: 2.75 µM
  TGI: > 100 µM
[5]
  GI50: 6.68 µM
  TGI: > 100 µM
[6]
  GI50: 2.71 µM
  TGI: > 100 µM
[9]
  GI50: 2.14 µM
  TGI: > 100 µM
[7]
  GI50: 0.95 µM
  TGI: > 100 µM

## COC(=O)/C=c1\s/c(=C\C(=O)OC)c2ccccc12
[8]
  TGI: > 100 µM
[1]
  TGI: > 100 µM
[2]
  TGI: > 100 µM
[3]
  TGI: > 100 µM
[4]
  TGI: > 100 µM
[5]
  TGI: > 100 µM
[6]
  TGI: > 100 µM
[9]
  TGI: > 100 µM

## CN(/N=C/c1cccc2cccnc12)c1c([N+](=O)[O-])cc([N+](=O)[O-])cc1[N+](=O)[O-]
[8]
  TGI: > 100 µM
[1]
  TGI: > 100 µM
[2]
  TGI: > 100 µM
[3]
  TGI: > 100 µM
[4]
  TGI: > 100 µM
[5]
  TGI: > 100 µM
[6]
  TGI: > 100 µM
[9]
  TGI: > 100 µM
[7]
  TGI: > 100 µM

## c1ccc(P(=C2c3ccccc3-c3ccccc32)(c2ccccc2)c2ccccc2)cc1
[8]
  TGI: 7.4 µM
[1]
  TGI: > 100 µM
[2]
  TGI: > 100 µM
[5]
  TGI: > 100 µM
[6]
  TGI: 9.82 µM
[9]
  TGI: 10.4 µM
[7]
  TGI: 19.2 µM

## Cc1nc2sccn2c1C(=O)NC(=O)Nc1ccc(Cl)cc1
[8]
  TGI: 74.3 µM
[1]
  TGI: > 100 µM
[2]
  TGI: > 100 µM
[3]
  TGI: > 100 µM
[4]
  TGI: > 100 µM
[5]
  TGI: > 100 µM
[6]
  TGI: > 100 µM
[9]
  TGI: > 100 µM
[7]
  TGI: > 100 µM

## Oc1[nH]c2ccccc2c1N=Nc1c(F)c(F)c(F)c(F)c1F
[1]
  TGI: > 64.3 µM
[2]
  TGI: > 100 µM
[3]
  TGI: > 100 µM
[5]
  TGI: > 100 µM
[10]
  TGI: > 100 µM
[6]
  TGI: 36.8 µM
[9]
  TGI: > 72.8 µM
[7]
  TGI: > 100 µM

## O=C(CCc1nnc2s/c(=C\c3ccccc3Cl)c(=O)n12)Nc1cc(Cl)ccc1Cl
[8]
  TGI: > 100 µM
[1]
  TGI: > 100 µM
[2]
  TGI: > 100 µM
[3]
  TGI: > 100 µM
[4]
  TGI: > 100 µM
[5]
  TGI: > 100 µM
[6]
  TGI: > 100 µM
[9]
  TGI: > 100 µM
[7]
  TGI: > 100 µM

## C=CCOC(=O)C1CCC(=O)N1C(=O)C(Cl)Cl (configuration not stated)
[8]
  TGI: > 100 µM
[1]
  TGI: > 100 µM
[2]
  TGI: > 100 µM
[3]
  TGI: > 100 µM
[4]
  TGI: > 100 µM
[5]
  TGI: > 100 µM
[6]
  TGI: > 100 µM
[9]
  TGI: > 100 µM
[7]
  TGI: > 100 µM

## CN(C)CCNC(=O)c1cccc2ccc(-c3ccc(-c4ccccc4)cc3)nc12
[8]
  TGI: 11.8 µM
[1]
  TGI: 11 µM
[2]
  TGI: 6.74 µM
[3]
  TGI: 3.4 µM
[4]
  TGI: 3.61 µM
[5]
  TGI: 25.1 µM
[6]
  TGI: 12.8 µM
[9]
  TGI: 4.74 µM
[7]
  TGI: 2.98 µM

## COc1cc(C2C3=C(COC3=O)N(CCO)c3cc4c(cc32)OCO4)cc(OC)c1O (configuration not stated)
[1]
  GI50: 5.4 µM
  TGI: > 41 µM
[2]
  GI50: 2.99 µM
  TGI: > 50 µM
[3]
  GI50: 1.88 µM
  TGI: > 26.3 µM
[4]
  GI50: 1.96 µM
  TGI: > 50 µM
[5]
  GI50: 2.27 µM
  TGI: > 18.8 µM
[10]
  GI50: 2.28 µM
  TGI: > 34.3 µM
[6]
  GI50: > 13.5 µM
  TGI: > 50 µM
[9]
  GI50: 1.71 µM
  TGI: > 50 µM
[7]
  GI50: 1.69 µM
  TGI: > 15.9 µM

## O=C(C/C(CCC(=O)N(Cc1ccccc1)Cc1ccccc1)=N/Nc1ccc([N+](=O)[O-])cc1[N+](=O)[O-])c1ccccc1
[8]
  TGI: > 100 µM
[2]
  TGI: > 100 µM
[3]
  TGI: > 100 µM
[4]
  TGI: > 100 µM
[5]
  TGI: > 100 µM
[9]
  TGI: > 100 µM
[7]
  TGI: > 100 µM

## COc1cc2c(cc1C1=NC(C)(C)CO1)OCO2
[8]
  TGI: > 100 µM
[1]
  TGI: > 100 µM
[2]
  TGI: > 100 µM
[3]
  TGI: > 100 µM
[4]
  TGI: > 100 µM
[5]
  TGI: > 100 µM
[6]
  TGI: > 100 µM
[9]
  TGI: > 100 µM
[7]
  TGI: > 100 µM

## COc1ccc(Nc2nc3cc(N)cc(N)c3nc2-c2ccccc2)cc1OC
[1]
  GI50: 18.3 µM
  TGI: 66 µM
[2]
  GI50: 18.7 µM
  TGI: 52.1 µM
[3]
  GI50: 14.9 µM
  TGI: 29.7 µM
[4]
  GI50: 15.7 µM
  TGI: 35.7 µM
[5]
  GI50: 35.4 µM
  TGI: > 100 µM
[10]
  GI50: 25.9 µM
  TGI: 81.6 µM
[6]
  GI50: 27.4 µM
  TGI: > 100 µM
[9]
  GI50: 15.5 µM
  TGI: 35.9 µM
[7]
  GI50: 20.5 µM
  TGI: > 100 µM

## CC[N+](C)(CC)CC(C)(C)C(=O)/C=C/c1ccc(/C=C/C(=O)C(C)(C)C[N+](C)(CC)CC)cc1
[8]
  TGI: > 100 µM
[1]
  TGI: > 100 µM
[2]
  TGI: > 100 µM
[3]
  TGI: > 100 µM
[4]
  TGI: > 100 µM
[5]
  TGI: > 100 µM
[6]
  TGI: > 100 µM
[9]
  TGI: > 100 µM
[7]
  TGI: > 100 µM

## N#Cc1ccc2cc3c(cc2c1)OCO3
[8]
  TGI: > 100 µM
[2]
  TGI: > 100 µM
[3]
  TGI: > 100 µM
[5]
  TGI: > 100 µM
[6]
  TGI: > 100 µM
[7]
  TGI: > 100 µM

## O=C(NCc1ccco1)c1cccc(NC2=C(Cl)C(=O)N(Cc3ccccc3)C2=O)c1
[8]
  GI50: 7.91 µM
  TGI: 33 µM
[1]
  GI50: 0.232 µM
  TGI: 1.45 µM
[2]
  GI50: 6.74 µM
  TGI: 64.3 µM
[3]
  GI50: 3.86 µM
  TGI: 15.1 µM
[5]
  GI50: 23.2 µM
  TGI: > 100 µM
[10]
  GI50: 7.29 µM
  TGI: 30.7 µM
[6]
  GI50: 9.18 µM
  TGI: 42.3 µM
[9]
  GI50: 11.5 µM
  TGI: > 100 µM
[7]
  GI50: 92.3 µM
  TGI: > 100 µM

## CC1NC(=O)C2=C1C(N)=NC(=O)C2 (configuration not stated)
[8]
  TGI: > 100 µM
[1]
  TGI: > 100 µM
[2]
  TGI: > 100 µM
[3]
  TGI: > 100 µM
[4]
  TGI: > 100 µM
[5]
  TGI: > 100 µM
[6]
  TGI: > 100 µM
[9]
  TGI: > 100 µM
[7]
  TGI: > 100 µM
